# Tests used:
# IDH2 R140Q = biological target: T1, IDH2 R140Q (Homo sapiens, UniProt P48735, R140Q); experiment: IDH2 R140Q enzymatic assay (cofactor depletion assay, diaphorase/resazurin readout); format: biochemical; settings: read-out: Enz R140Q
# T1 sequence (P48735 40-452 R140Q): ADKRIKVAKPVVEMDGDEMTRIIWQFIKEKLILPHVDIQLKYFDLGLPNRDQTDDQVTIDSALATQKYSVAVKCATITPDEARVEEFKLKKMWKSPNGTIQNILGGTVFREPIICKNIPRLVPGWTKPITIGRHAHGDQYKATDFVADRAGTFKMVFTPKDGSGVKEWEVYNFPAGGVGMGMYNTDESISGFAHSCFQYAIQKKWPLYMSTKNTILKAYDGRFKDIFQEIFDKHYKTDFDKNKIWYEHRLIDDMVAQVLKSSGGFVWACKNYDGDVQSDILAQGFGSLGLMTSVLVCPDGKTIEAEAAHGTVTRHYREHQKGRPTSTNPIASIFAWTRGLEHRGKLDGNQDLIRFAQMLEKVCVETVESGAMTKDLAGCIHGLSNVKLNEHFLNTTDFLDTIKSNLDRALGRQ
# Experimental: [The source words this procedure for another variant and says it was used here with some conditions changed.] Compounds are assayed for IDH2 R172K inhibitory activity through a cofactor depletion assay. […] The reaction is terminated by the addition of a second enzyme, diaphorase, and a corresponding substrate, resazurin. Diaphorase reduces resazurin to the highly fluorescent resorufin with the concomitant oxidation of NADPH to NADP, both halting the IDH2 reaction by depleting the available cofactor pool and facilitating quantitation of the amount of cofactor remaining after a specific time period through quantitative production of an easily detected fluorophore.
# The test compound is then incubated for one hour at room temperature with the enzyme; before starting the IDH2 reaction with the addition of 10 μl of substrate mix containing 50 μM NADPH and 6.3 mM α-KG in the buffer described above. After a further one hour of incubation at room temperature, the reaction is halted and the remaining NADPH measured through conversion of resazurin to resorufin by the addition of 25 μl Stop Mix (36 μg/ml diaphorase enzyme and 60 μM resazurin; in buffer). After one minute of incubation the plate is read on a plate reader at Ex544/Em590.
# [1] = system: U87MG pLVX-IDH2 R140Q-neo cells; experiment: U87MG pLVX-IDH2 R140Q-Neo cell based assay (2-HG in media by LC-MS); settings: 48 hours; for IC50: Homo sapiens, U-87 MG
# Experimental: U87MG pLVX-IDH2 R140Q-Neo Cell Based Assay.
# U87MG pLVX-IDH2 R140Q-neo cells are grown in T125 flasks in DMEM containing 10% FBS, 1× penicillin/streptomycin and 500 μg/mL G418. They are harvested by trypsin and seeded into 96 well white bottom plates at a density of 5000 cell/well in 100 μl/well in DMEM with 10% FBS. No cells are plated in columns 1 and 12. Cells are incubated overnight at 37° C. in 5% CO2. The next day compounds are made up at 2× concentration and 100 ul are added to each cell well. The final concentration of DMSO is 0.2% and the DMSO control wells are plated in row G. The plates are then placed in the incubator for 48 hours. At 48 hours, 100 ul of media is removed from each well and analyzed by LC-MS for 2-HG concentrations. The cell plate is placed back in the incubator for another 24 hours. At 72 hours post compound addition, 10 mL/plate of Promega Cell Titer Glo reagent is thawed and mixed. The cell plate is removed from the incubator and allowed to equilibrate to room temperature. Then 100 ul of reagent is added to each well of media. The cell plate is then placed on an orbital shaker for 10 minutes and then allowed to sit at room temperature for 20 minutes. The plate is then read for luminescence with an integration time of 500 ms to determine compound effects on growth inhibition.
SMILES,IC50 (IDH2 R140Q),Cell R140Q [1],IC50 [1]
CC(C)Nc1nc(Nc2ccnc(C(F)(F)F)c2)nc(C2CCNC(=O)C2)n1 (stereo not shown) [Compound 13],1000 to 10000 nM,No fit,
"CC(C)Nc1nc(Nc2ccnc(C(F)(F)F)c2)nc(C2=CC(=O)CCC2)n1 [Compound 6, 3-(4-(isopropylamino)-6-((2-(trifluoromethyl)pyridin-4-yl)amino)-1,3,5-triazin-2-yl)cyclohex-2-enone]",100 to 1000 nM,,< 100 nM
"CC(C)Nc1nc(Nc2ccnc(C(F)(F)F)c2)nc(C2CCCC(O)C2)n1 (stereo not shown) [Compound 11, 3-(4-(isopropylamino)-6-((2-(trifluoromethyl)pyridin-4-yl)amino)-1,3,5-triazin-2-yl)cyclohexanol]",< 100 nM,,< 100 nM
"CC(C)Nc1nc(Nc2ccnc(C(F)(F)F)c2)nc(C2CCCC(=O)C2)n1 (stereo not shown) [Compound 8, 3-(4-(isopropylamino)-6-((2-(trifluoro-methyl)pyridin-4-yl)amino)-1,3,5-triazin-2-yl)cyclohexanone]",100 to 1000 nM,,< 100 nM
"CC(C)Nc1nc(Nc2ccnc(C(F)(F)F)c2)nc(C2=CC(O)CCC2)n1 (stereo not shown) [Compound 7, 3-(4-(isopropylamino)-6-((2-(trifluoromethyl)pyridin-4-yl)amino)-1,3,5-triazin-2-yl)cyclohex-2-enol]",< 100 nM,,< 100 nM
"CC(C)Nc1nc(Nc2ccnc(C(F)(F)F)c2)nc(C2CCC2)n1 [Compound 5, 6-cyclobutyl-N2-isopropyl-N4-(2-(trifluoromethyl)pyridin-4-yl)-1,3,5-triazine-2,4-diamine]",< 100 nM,,100 to 1000 nM
CC1CCCC(c2nc(Nc3ccnc(C(F)(F)F)c3)nc(NC(C)C)n2)C1 (stereo not shown) [Compound 9],< 100 nM,,100 to 1000 nM
CC(C)Nc1nc(Nc2ccnc(C(F)(F)F)c2)nc(C2CCCCC2)n1 [Compound 2],< 100 nM,,< 100 nM
CC(C)Nc1nc(Nc2ccnc(C(F)(F)F)c2)nc(C2=CC(=O)NCC2)n1 [Compound 12],< 100 nM,,100 to 1000 nM
"CC(C)Nc1nc(Nc2ccnc(C(F)(F)F)c2)nc(C2CCCC2)n1 [Compound 4, 6-cyclopentyl-N2-isopropyl-N4-(2-(trifluoromethyl)pyridin-4-yl)-1,3,5-triazine-2,4-diamine]",< 100 nM,,100 to 1000 nM
CC1CC(C)CC(c2nc(Nc3ccnc(C(F)(F)F)c3)nc(NC(C)C)n2)C1 (stereo not shown) [Compound 10],100 to 1000 nM,,
"CC(C)Nc1nc(Nc2ccnc(C(F)(F)F)c2)nc(C(C)(C)C)n1 [Compound 3, 6-(tert-butyl)-N2-isopropyl-N4-(2-(trifluoromethyl)pyridin-4-yl)-1,3,5-triazine-2,4-diamine]",100 to 1000 nM,,100 to 1000 nM
"CC(C)Nc1nc(Nc2ccnc(C(F)(F)F)c2)nc(C2=CCCCC2)n1 [Compound 1, 6-(cyclohex-1-en-1-yl)-N2-isopropyl-N4-(2-(trifluoromethyl)pyridin-4-yl)-1,3,5-triazine-2,4-diamine]",< 100 nM,,< 100 nM

# — patent publication US10017495B2, “Therapeutically active compounds and their methods of use” (AGIOS PHARMACEUTICALS, INC, priority 2013, dated 2018)
